What was measured:
[1] = test system: SUM149, SUM149R, SUM159, and SUM159R cells; test: Synergy studies (ATPlite, combination indices, isobolograms); format: cell-based, human
Description: SUM149, SUM149R, SUM159, and SUM159R cells were seeded in sterile, white, opaque 384-well microtiter plates (Thermo), using an automated dispensing system (BioTek EL406), at 1,000 cells per well in 50 μl of media. Drugs were delivered in DMSO by robotic pin transfer with a JANUS workstation (100 nl) to achieve a matrix of pairwise dose-response incubations of each compound, each pair having eight replicates. Following 72 hours of incubation, ATP levels were determined for treated cells and vehicle controls (ATPlite, PerkinElmer). Data were normalized to vehicle controls. Combination indices were determined using the median-effect principle of Chou and Talalay^49 (CalcuSyn Software). Isobologram plots were generated with GraphPad Prism software. Points represent paired values of drug concentrations assessed for synergism. The diagonal line signifies drug additivity. Points above the line represent antagonistic drug combinations, and those below the line represent synergistic drug combinations. Synergy assays were performed in triplicates and repeated 2-3 times.

[2] = test system: BRD4-MED1 association in SUM159R cells; test: BRD4 immunoprecipitation followed by immunoblot for MED1, resistant cells; format: cell-based, human; conditions: SUM159R, 3 hrs treatment
Description: Cells were lysed five days after transfection with siRNAs in RIPA buffer. Proteins were resolved in SDS-polyacrylamide gels (4%-12%) and transferred to PVDF membranes by using a Tris-glycine buffer system. […] Cells were incubated on ice for 15 min and gently vortexed every 5 min. […] After centrifugation of the lysates at 14 g for 10 min at 4° C., supernatant was diluted with 0.6 ml buffer A, and added NP-40 to final 0.5% and treated with DNase I. The samples were then incubated at 4° C. overnight with BRD4 or Flag antibodies at 1:100 dilution and immunoprecipitates were collected on Dynabeads Protein G for 2 hr. Beads were washed with buffer B containing 150 mM NaCl and 0.5% NP-40 three times and then resuspended in gel loading buffer. Immunoblotting and immunoprecipitation experiments were repeated 2-3 times.

phospho-BRD4 (pBRD4) = test: Immunoblot analysis of phospho-BRD4; format: cell-based, human; conditions: SUM159R, SUM149R, and other cell lines; short-term treatment
Text: Immunoblotting and immunoprecipitation experiments were repeated 2-3 times.

[3] = test system: MDR (multi drug resistance) pumps in SUM159 and SUM159R cells; test: Multi-Drug Resistance (MDR) assay; format: cell-based, human; conditions: with JQ1
Description: Cell viability and growth assays (FIGS. 1A-1B, FIGS. 3A-3E, 3G, FIGS. 5D-5F, FIGS. 6C, 6E, 6I, FIG. 7A, FIG. 10D, FIGS. 14A-14C), cycle, apoptosis, and MDR assays were performed in triplicates and repeated 2-3 times. For cell proliferation assays, cells were plated at 500 cells per well in 96-well plates and treated the next day with inhibitors, DMSO or doxycycline (500 ng). Cells were cultured at 37° C. with 5% CO2 in the media described-above, and cell viability was measured using CellTiter-Glo three days after treatments. For cell growth assays, cells were plated at 5000 (SUM159) or 20000 (SUM149) cells per well in 6-well plates and treated the next day with inhibitors. Cells were counted every three days by cell counter. Cellular apoptosis was analyzed with an APC AnnexinV/7ADD Apoptosis Detection kit (BD Pharmingen). AnnexinV/7AAD assessments and cell cycle graphics were generated using FlowJo software V7.6.1 for Windows (Tree Star). Senescence Beta-gal staining was performed using Senescence β-Galactosidase staining kit from Cell signaling. Briefly, after JQ1 treatment (500 nM) for 72 h, SUM159 and MDA-MB-231 cells were fixed by Fixative Solution for 15 min, followed by β-Galactosidase solution incubation overnight at 37° C. The staining was checked under microscope for the development of blue color. […]

[4] = test system: xenografts derived from SUM159R cells; test: Xenograft assay, SUM159R (BBI-resistant SUM159); format: in vivo, mice; conditions: administered along with JQ1
Description: (§1) For xenograft assays 5-6-weeks old female CrTac:NCr-Foxn1^nu and NOD.Cg-Prkdc^scid Il2rg^tm1Sug/JicTac mice were purchased from Taconic. Tumors were induced by bilateral orthotopic mammary fat pad injection of 1×10^6 cells in 50% Matrigel (BD Biosciences) in DMEM/F12 or Medium 171 (except for IDC50-X cells, which were injected with 3% FBS and 4 mg/ml collagen gel in Medium 171). Animal experiments were conducted following protocol 11-023 approved by the Dana-Farber Cancer Institute Animal Care and Use Committee.

[5] = test system: tumors derived from BBI-resistant SUM149 cells; test: Xenograft assay, BBI-resistant SUM149; format: in vivo, mice; conditions: administered along with JQ1
Description: as §1

[6] = summary statement, resistant cells

Row | SMILES | Synergy with JQ1 [1, 6] | Synergy with JQ1 ([1]; synergy screens, 72 hours) | Tumor weight [4] | Tumor weight [5] | other results
1 | CN(C)CC[C@H](CSc1ccccc1)Nc1ccc(S(=O)(=O)NC(=O)c2ccc(N3CCN(Cc4ccccc4-c4ccc(Cl)cc4)CC3)cc2)cc1[N+](=O)[O-] [ABT737, 4-[4-[[2-(4-chlorophenyl)phenyl]methyl]piperazin-1-yl]-N-[4-[[(2R)-4-(dimethylamino)-1-phenylsulfanylbutan-2-yl]amino]-3-nitrophenyl] sulfonylbenzamide] | substantial synergy | Significant synergy |  |  | 
2 | c1ccc2c(c1)Nc1ccccc1S2 [phenothiazine] |  |  |  |  | MED1 abundance in BRD4 immunoprecipitation [2]: decreased MED1 abundance; pBRD4 levels (phospho-BRD4 (pBRD4)): rapid dephosphorylation of BRD4
3 | OCCN1CCN(CCCN2c3ccccc3Sc3ccc(Cl)cc32)CC1 [perphenazine] | substantial synergy | Significant synergy |  |  | 
4 | COc1ccc(CCN(C)CCCC(C#N)(c2ccc(OC)c(OC)c2)C(C)C)cc1OC (centres unmarked) [verapamil] |  |  |  |  | Effect of co-incubation with MDR1 inhibitor on BBI-resistance [3]: had no effect
5 | O=C(O)c1ccc2c(c1)nc(Nc1cccc(Cl)c1)c1ccncc12 [CX-4945, 5-(3-chloroanilino)benzo[c][2,6]naphthyridine-8-carboxylic acid] | substantial synergy | Significant synergy |  |  | 
6 | CC1(C)CCC(c2ccc(Cl)cc2)=C(CN2CCN(c3ccc(C(=O)NS(=O)(=O)c4ccc(N[C@H](CCN5CCOCC5)CSc5ccccc5)c(S(=O)(=O)C(F)(F)F)c4)cc3)CC2)C1 [ABT 263, 4-[4-[[2-(4-chlorophenyl)-5,5-dimethylcyclohexen-1-yl]methyl]piperazin-1-yl]-N-[4-[[(2R)-4-morpholin-4-yl-1-phenylsulfanylbutan-2-yl]amino]-3-(trifluoromethylsulfonyl)phenyl]sulfonylbenzamide] | substantial synergy |  | reduced tumor weight to a greater extent than the corresponding single therapy and JQ1 alone | reduced tumor weight to a greater extent than the corresponding single therapy and JQ1 alone | 
7 | N#CC[C@H](C1CCCC1)n1cc(-c2ncnc3[nH]ccc23)cn1 [INC424] |  |  | reduced tumor weight to a greater extent than the corresponding single therapy and JQ1 alone | reduced tumor weight to a greater extent than the corresponding single therapy and JQ1 alone | 
8 | CC1(C)CCC(CN2CCN(c3ccc(C(=O)NS(=O)(=O)c4ccc(NCC5CCOCC5)c([N+](=O)[O-])c4)c(Oc4cnc5[nH]ccc5c4)c3)CC2)=C(c2ccc(Cl)cc2)C1 [ABT 199, 4-[4-[[2-(4-chlorophenyl)-4,4-dimethylcyclohexen-1-yl]methyl]piperazin-1-yl]-N-[3-nitro-4-(oxan-4-ylmethylamino)phenyl]sulfonyl-2-(1H-pyrrolo[2,3-b]pyridin-5-yloxy)benzamide] | substantial synergy |  | reduced tumor weight to a greater extent than the corresponding single therapy and JQ1 alone | reduced tumor weight to a greater extent than the corresponding single therapy and JQ1 alone | 

Source: US11666580B2, “Mechanism of resistance to bet bromodomain inhibitors” (Dana-Farber Cancer Institute, Inc., priority 2015, dated 2023)
